Data as given in ChEMBL document CHEMBL1121675, “Syntheses of 9-acridine- and 2-phenanthridinemethanols as potential antimalarials” (1981).
Active and inactive are the calls of the source. The rule behind the calls is not given here.

Tests used:
Mus musculus [1] = assay: Decrease in life span of mice treated with compound dose of 160 mg/kg; type: functional
Plasmodium berghei [2] = assay: Percent inhibition of adenosine uptake by Plasmodium berghei; type: functional
Plasmodium berghei [3] = assay: Percent inhibition of hypoxanthine uptake by Plasmodium berghei; type: functional
Mus musculus [4] = assay: Decrease in life span of mice treated with compound dose of 320 mg/kg; type: functional
Salmonella typhimurium [5] = assay: Mutagenic response at 1000 nmol/plate or lower for strain TA 100 of Salmonella Typhimurium; Not significant; type: functional, organism-based; conditions: Salmonella enterica subsp. enterica serovar Typhimurium
Salmonella typhimurium [6] = assay: Mutagenic response at 1000 nmol/plate or lower for strain TA 98 of Salmonella Typhimurium; Not significant; type: functional, organism-based; conditions: Salmonella enterica subsp. enterica serovar Typhimurium

With `CCCCN(CCCC)CCC(O)c1c2ccccc2nc2ccccc12` (stereo not drawn) the “Decrease in life span” value (Mus musculus [1]) was 0.4 days.
`CCN(CC)CCCC(C)Nc1c2ccc(Cl)cc2nc2ccc(OC)cc12` (stereo not drawn) [QUINACRINE] was tested, and the Inhibition (Plasmodium berghei [2]) was 80% and the Inhibition (Plasmodium berghei [3]) was 92%.
In the case of `CCCCN(CCCC)CC(O)c1ccc2ncc3ccccc3c2c1` (stereo not drawn), the “Decrease in life span” value (Mus musculus [4]) is reported as 0.1 days.
For `c1ccc2c(C3CO3)c3ccccc3nc2c1` (stereo not drawn), the Mutagenicity (Salmonella typhimurium [5]) was “inactive” and the Mutagenicity (Salmonella typhimurium [6]) was “inactive”.
`OC(CN1CCCCC1)c1c2ccccc2nc2ccccc12` (stereo not drawn) was tested, and the Inhibition (Plasmodium berghei [2]) was 31% and the Inhibition (Plasmodium berghei [3]) was 50%.
